The source made the active and inactive calls. The rule behind the calls is not given here.

The values that follow come from PubChem BioAssay AID1259407 (Chemical Carcinogenesis Research Information System (CCRIS), 2018).

The subject of this data set is CCRIS mutagenicity, Ames/micronucleus/aberration tests. Put plainly: CCRIS mutagenicity studies.
[1] abbreviates: Test System: AMES SALMONELLA TYPHIMURIUM, Strain/Indicator: TA98, Metabolic Activation: NONE, Method: PREINCUBATION
Where [2] appears, read: Test System: AMES SALMONELLA TYPHIMURIUM, Strain/Indicator: TA100, Metabolic Activation: NONE, Method: PREINCUBATION
The mark [3] stands for this setting: Test System: AMES SALMONELLA TYPHIMURIUM, Strain/Indicator: TA1535, Metabolic Activation: HAMSTER, LIVER, S-9, AROCLOR 1254 (10 OR 30%), Method: PREINCUBATION
Where [4] appears, read: Test System: AMES SALMONELLA TYPHIMURIUM, Strain/Indicator: TA1535, Metabolic Activation: NONE, Method: PREINCUBATION
[5] abbreviates: Test System: AMES SALMONELLA TYPHIMURIUM, Strain/Indicator: TA1535, Metabolic Activation: RAT, LIVER, S-9, AROCLOR 1254 (10 OR 30%), Method: PREINCUBATION

As to `CC#N`, the mutagenic call reads like this: (End Point: IN VITRO CHROMOSOMAL ABERRATIONS, Test System: CHINESE HAMSTER OVARY CELLS, Metabolic Activation: NONE) “inactive; negative”; (End Point: IN VITRO CHROMOSOMAL ABERRATIONS, Test System: CHINESE HAMSTER OVARY CELLS, Metabolic Activation: RAT, LIVER, S-9, AROCLOR 1254) “active; positive; statistically significant increase, but not dose-related”; (Test System: AMES SALMONELLA TYPHIMURIUM, Strain/Indicator: TA98, Metabolic Activation: HAMSTER, LIVER, S-9, AROCLOR 1254 (10 OR 30%), Method: PREINCUBATION) “inactive; negative”; under setting [1], “inactive; negative”; (Test System: AMES SALMONELLA TYPHIMURIUM, Strain/Indicator: TA98, Metabolic Activation: RAT, LIVER, S-9, ACETONITRILE (AUTOINDUCTION), Method: PREINCUBATION) “inactive; negative”; (Test System: AMES SALMONELLA TYPHIMURIUM, Strain/Indicator: TA98, Metabolic Activation: RAT, LIVER, S-9, AROCLOR 1254 (10 OR 30%), Method: PREINCUBATION) “inactive; negative”. The mutagenic call is “inactive; negative” (Test System: AMES SALMONELLA TYPHIMURIUM, Strain/Indicator: TA98, Metabolic Activation: RAT, LIVER, S-9, PHENOBARBITONE, Method: PREINCUBATION); “inactive; negative” (Test System: AMES SALMONELLA TYPHIMURIUM, Strain/Indicator: TA100, Metabolic Activation: HAMSTER, LIVER, S-9, AROCLOR 1254 (10 OR 30%), Method: PREINCUBATION); “inactive; negative” under setting [2]; “inactive; negative” (Test System: AMES SALMONELLA TYPHIMURIUM, Strain/Indicator: TA100, Metabolic Activation: RAT, LIVER, S-9, ACETONITRILE (AUTOINDUCTION), Method: PREINCUBATION); “inactive; negative” (Test System: AMES SALMONELLA TYPHIMURIUM, Strain/Indicator: TA100, Metabolic Activation: RAT, LIVER, S-9, AROCLOR 1254 (10 OR 30%), Method: PREINCUBATION); “inactive; negative” (Test System: AMES SALMONELLA TYPHIMURIUM, Strain/Indicator: TA100, Metabolic Activation: RAT, LIVER, S-9, PHENOBARBITONE, Method: PREINCUBATION). Further, the mutagenic call is “inactive; negative” under setting [3]; “inactive; negative” under setting [4]; “inactive; negative” under setting [5]; “inactive; negative” (Test System: AMES SALMONELLA TYPHIMURIUM, Strain/Indicator: TA1537, Metabolic Activation: HAMSTER, S-9, AROCLOR 1254 (10 OR 30%), Method: PREINCUBATION); “inactive; negative” (Test System: AMES SALMONELLA TYPHIMURIUM, Strain/Indicator: TA1537, Metabolic Activation: NONE, Method: PREINCUBATION); “inactive; negative” (Test System: AMES SALMONELLA TYPHIMURIUM, Strain/Indicator: TA1537, Metabolic Activation: RAT, LIVER, S-9, AROCLOR 1254 (10 OR 30%), Method: PREINCUBATION).
Consider `CSCCl`, for which the mutagenic call (Test System: AMES SALMONELLA TYPHIMURIUM, Strain/Indicator: TA98, Metabolic Activation: NONE, Method: SPOT TEST) was “inactive; negative”; the mutagenic call (Test System: AMES SALMONELLA TYPHIMURIUM, Strain/Indicator: TA98, Metabolic Activation: RAT, LIVER, S-9, AROCLOR 1254, Method: SPOT TEST) was “inactive; negative”; the mutagenic call (Test System: AMES SALMONELLA TYPHIMURIUM, Strain/Indicator: TA100, Metabolic Activation: NONE, Method: SPOT TEST) is “active; positive”; the mutagenic call (Test System: AMES SALMONELLA TYPHIMURIUM, Strain/Indicator: TA100, Metabolic Activation: RAT, LIVER, S-9, AROCLOR 1254, Method: SPOT TEST) is “active; positive”; the mutagenic call (Test System: AMES SALMONELLA TYPHIMURIUM, Strain/Indicator: TA102, Metabolic Activation: RAT, LIVER, S-9, AROCLOR 1254, Method: SPOT TEST) is “active; positive”.
As to `CC(C)C(C)C`, the mutagenic call (Test System: AMES SALMONELLA TYPHIMURIUM, Strain/Indicator: TA97, Metabolic Activation: HAMSTER, LIVER, S-9, AROCLOR 1254 (10 OR 30%), Method: PREINCUBATION) is “inactive; negative”; the mutagenic call (Test System: AMES SALMONELLA TYPHIMURIUM, Strain/Indicator: TA97, Metabolic Activation: NONE, Method: PREINCUBATION) was “inactive; negative”; the mutagenic call (Test System: AMES SALMONELLA TYPHIMURIUM, Strain/Indicator: TA97, Metabolic Activation: RAT, LIVER, S-9, AROCLOR 1254 (10 OR 30%), Method: PREINCUBATION) was “inactive; negative”; the mutagenic call (Test System: AMES SALMONELLA TYPHIMURIUM, Strain/Indicator: TA98, Metabolic Activation: HAMSTER, LIVER, S-9, AROCLOR 1254 (10%), Method: PREINCUBATION) was “inactive; negative”; the mutagenic call (Test System: AMES SALMONELLA TYPHIMURIUM, Strain/Indicator: TA98, Metabolic Activation: HAMSTER, LIVER, S-9, AROCLOR 1254 (30%), Method: DESICCATOR) is “inactive; negative”; the mutagenic call (Test System: AMES SALMONELLA TYPHIMURIUM, Strain/Indicator: TA98, Metabolic Activation: HAMSTER, LIVER, S-9, AROCLOR 1254 (30%), Method: PREINCUBATION) is “inactive; negative”. The mutagenic call reads like this: (Test System: AMES SALMONELLA TYPHIMURIUM, Strain/Indicator: TA98, Metabolic Activation: NONE, Method: DESICCATOR) “inactive; negative”; under setting [1], “inactive; negative”; (Test System: AMES SALMONELLA TYPHIMURIUM, Strain/Indicator: TA98, Metabolic Activation: RAT, LIVER, S-9, AROCLOR 1254 (10%), Method: PREINCUBATION) “inactive; negative”; (Test System: AMES SALMONELLA TYPHIMURIUM, Strain/Indicator: TA98, Metabolic Activation: RAT, LIVER, S-9, AROCLOR 1254 (30%), Method: DESICCATOR) “inactive; negative”; (Test System: AMES SALMONELLA TYPHIMURIUM, Strain/Indicator: TA98, Metabolic Activation: RAT, LIVER, S-9, AROCLOR 1254 (30%), Method: PREINCUBATION) “inactive; negative”; (Test System: AMES SALMONELLA TYPHIMURIUM, Strain/Indicator: TA100, Metabolic Activation: HAMSTER, LIVER, S-9, AROCLOR 1254 (10%), Method: PREINCUBATION) “inactive; negative”. The mutagenic call by setting is: (Test System: AMES SALMONELLA TYPHIMURIUM, Strain/Indicator: TA100, Metabolic Activation: HAMSTER, LIVER, S-9, AROCLOR 1254 (30%), Method: DESICCATOR) “inactive; negative”; (Test System: AMES SALMONELLA TYPHIMURIUM, Strain/Indicator: TA100, Metabolic Activation: HAMSTER, LIVER, S-9, AROCLOR 1254 (30%), Method: PREINCUBATION) “inactive; negative”; (Test System: AMES SALMONELLA TYPHIMURIUM, Strain/Indicator: TA100, Metabolic Activation: NONE, Method: DESICCATOR) “inactive; negative”; under setting [2], “inactive; negative”; (Test System: AMES SALMONELLA TYPHIMURIUM, Strain/Indicator: TA100, Metabolic Activation: RAT, LIVER, S-9, AROCLOR 1254 (10%), Method: PREINCUBATION) “inactive; negative”; (Test System: AMES SALMONELLA TYPHIMURIUM, Strain/Indicator: TA100, Metabolic Activation: RAT, LIVER, S-9, AROCLOR 1254 (30%), Method: DESICCATOR) “inactive; negative”. In addition, the mutagenic call (Test System: AMES SALMONELLA TYPHIMURIUM, Strain/Indicator: TA100, Metabolic Activation: RAT, LIVER, S-9, AROCLOR 1254 (30%), Method: PREINCUBATION) was “inactive; negative”; the mutagenic call under setting [3] was “inactive; negative”; the mutagenic call under setting [4] was “inactive; negative”; the mutagenic call under setting [5] was “inactive; negative”.
